Laboratory results as given in ChEMBL document CHEMBL4000195, “Design and synthesis of novel 7-aminosubstituted pyrido[2,3-b]pyrazines exhibiting anti-breast cancer activity” (Eur J Med Chem, 2017).

Experiments:
Assay type in all cases: functional
MDA-MB-231 [1] = assay: Cytotoxicity against human MDA-MB-231 cells at 10 uM by MTT assay
T47D [2] = assay: Cytotoxicity against human T47D cells at 10 uM by MTT assay
HCC1954 [3] = assay: Cytotoxicity against human HCC1954 cells at 10 uM by MTT assay
HCC1954 [4] = assay: Cytotoxicity against human HCC1954 cells at 5 uM by MTT assay
MCF7 [5] = assay: Cytotoxicity against human MCF7 cells at 5 uM by MTT assay
MCF7 [6] = assay: Cytotoxicity against human MCF7 cells at 10 uM by MTT assay
MDA-MB-231 [7] = assay: Cytotoxicity against human MDA-MB-231 cells at 5 uM by MTT assay
T47D [8] = assay: Cytotoxicity against human T47D cells at 5 uM by MTT assay

Measured: Activity

Cc1nc2nccnc2cc1NC(=O)c1ccc([N+](=O)[O-])cc1
<50%: all assays above

Cc1nc2nc(Sc3ccccc3)cnc2cc1NC(=O)Nc1ccc(F)c([N+](=O)[O-])c1
<50%: all assays above

Cc1ccc(C(=O)Nc2cc3nccnc3nc2C)cc1
<50%: all assays above

COc1cc(C(=O)Nc2cc3ncc(Sc4ccccc4)nc3nc2C)cc(OC)c1OC
<50%: all assays above

Cc1nc2nc(Sc3ccccc3)cnc2cc1NC(=O)Nc1ccc(F)c(Cl)c1
<50%: all assays above

Cc1ccc(C(=O)Nc2cc3ncc(Sc4ccccc4)nc3nc2C)cc1
<50%: all assays above

Cc1nc2nccnc2cc1NC(=O)c1cccc(C(F)(F)F)c1
<50%: all assays above

CSc1ccc(NC(=O)Nc2cc3ncc(Sc4ccccc4)nc3nc2C)cc1
<50%: all assays above

Cc1nc2nccnc2cc1NC(=O)CN1CCN(C)CC1
<50%: all assays above

Cc1nc2nc(Sc3ccccc3)cnc2cc1NC(=O)Nc1cccc(C(F)(F)F)c1
<50%: all assays above
